Test results published in publication PMC7146544, “Dual Plasmepsin-Targeting Antimalarial Agents Disrupt Multiple Stages of the Malaria Parasite Life Cycle” (Cell Host & Microbe, 2020).
Several values for one entry are separate records, joined by “and”; a condition that tells them apart may be missing. Equal values may be shown once. Read-outs that look alike come from different tables or passages of the source.

Columns and labels:
[1] = test system: P. falciparum; assay: P. falciparum asexual blood-stage growth inhibition (LDH or SYBR Green flow cytometry); format: cell-based, Plasmodium falciparum
Protocol: For High Throughput Screening (HTS) of compounds we used the lactate dehydrogenase (LDH) assay to detect parasitemia ([Makler et al., 1993], [Oduola et al., 1997]) formatted in a 384 well assay using an Echo555 (Labcyte). The P. falciparum assay was conducted with minor modifications ([Gamo et al., 2010]). Briefly, an inoculum of parasitized red blood cells at 0.7% parasitemia and 2% hematocrit in RPMI-1640, 5% AlbuMAX, 2% d-sucrose, 0.3% glutamine and 150 μM hypoxanthine was used for the assay. Assay plates (Greiner #781098, 384 well, white, tissue culture treated) were prepared by dispensing 1 μl of compound from master plates at 20 μM (10% DMSO stock) into 9ul pre-dispensed growth media in each well. The parasite inoculum (30 μl) was dispensed into plates containing compounds using a Multidrop Combi dispenser (Thermo Scientific). Final assay volume was 40 μl and final compound concentration was 500 nM. The positive growth control was 0.25% DMSO and the negative growth control was 100 nM chloroquine. Plates were incubated at 37 °C for 72 h in an atmosphere of […]. Following 72 h growth, plates were sealed with parafilm and frozen at −80 °C overnight. Plates were thawed at room temperature for at least 4 h prior to LDH activity being measured. 45 μl of fresh LDH reaction mix (174 mM sodium l-lactate, 214 μM 3-acetyl pyridine adenine dinucleotide (APAD), 270 μM Nitro Blue tetrazolium chloride (NBT), 4.35 U ml-1 diaphorase, 0.7% Tween 20, 100 mM Tris-HCl pH 7.5) was dispensed into each well using a Multidrop Combi dispenser. Plates were shaken to ensure mixing and absorbance at 650 nm was measured in an EnVision (PerkinElmer) plate reader after 30 min of incubation at room temperature. Data were normalized to percent growth inhibition using positive and negative controls and analyzed using Dotmatics 5.3 and Spotfire 7.11.1 (Tibco) software.
All wells were backfilled with DMSO to 45 nL such that this remained constant (0.1% DMSO). The positive growth control was 0.1% DMSO and the negative growth control was 100 nM chloroquine. Parasite inoculum (40 μl) was dispensed into plates containing compounds as described above. All other culture and lactate dehydrogenase (LDH) reaction methods are as described previously ([Makler et al., 1993], [Oduola et al., 1997]).
(§1) After 72 h incubation at 37°C each well was fixed at room temperature for 30 min with 50 μL of 0.25% glutaraldehyde (ProSciTech) diluted in PBS. Following centrifugation at 1200 rpm for 1 min, supernatants were discarded and parasites were stained with 50 μL of 5X SYBR Green (Invitrogen) diluted in PBS. 50,000 cells were counted by flow cytometry using a Cell Lab Quanta SC – MPL Flow Cytometer (Beckman Coulter) ([Bacon et al., 2007]). Growth was expressed as a percentage of the parasitemia obtained using a vehicle control. All samples were tested in triplicate. EC50 values were determined using GraphPad Prism.

[2] = test system: WM5 and 4 resistant P. falciparum; assay: microbe, parasite or virus in culture; format: cell-based, Plasmodium falciparum
Protocol: as §1
The parent and resistant lines were then cloned by limiting dilution, the EC50 for each line was determined and genomic DNA was purified from clonal parasites (QIAGEN Blood and Tissue Kit).

[3] = target: T1, P. falciparum aspartic protease, PMV (Plasmodium falciparum, UniProt Q8I6Z5); assay: Peptide cleavage (FRET) assay, PMV; format: biochemical; conditions: calculated from IC50 with Cheng-Prusoff equation
T1 construct: made in house
T1 sequence (Q8I6Z5 whole entry): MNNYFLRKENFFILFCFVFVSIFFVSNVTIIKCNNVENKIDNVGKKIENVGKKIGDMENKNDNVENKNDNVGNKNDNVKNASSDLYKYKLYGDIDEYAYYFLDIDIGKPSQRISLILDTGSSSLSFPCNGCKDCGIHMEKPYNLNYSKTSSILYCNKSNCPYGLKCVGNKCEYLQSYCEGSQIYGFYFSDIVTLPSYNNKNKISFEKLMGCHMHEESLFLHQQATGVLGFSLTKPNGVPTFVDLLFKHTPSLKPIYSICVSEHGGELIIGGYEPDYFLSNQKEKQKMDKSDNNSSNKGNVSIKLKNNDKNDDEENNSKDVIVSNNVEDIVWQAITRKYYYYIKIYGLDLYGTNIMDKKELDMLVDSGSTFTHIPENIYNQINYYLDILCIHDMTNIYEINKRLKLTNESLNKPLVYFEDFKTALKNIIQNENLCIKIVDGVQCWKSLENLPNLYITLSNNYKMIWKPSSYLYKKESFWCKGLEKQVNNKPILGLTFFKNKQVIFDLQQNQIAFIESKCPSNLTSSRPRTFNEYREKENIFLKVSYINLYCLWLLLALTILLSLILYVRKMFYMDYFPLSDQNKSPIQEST

[4] = test system: HepG2 cells; assay: EC50 for HepG2 cells; format: cell-based; conditions: Homo sapiens
[5] = test system: 3D7 parasite cultures; assay: Time of drug killing; format: cell-based, Plasmodium falciparum; conditions: 80nM WM4, 40nM WM5, 5nM WM382, added to early rings
Protocol: 3D7 parasite cultures were synchronized using 5% sorbitol (Sigma) twice at 46 h intervals then again when the culture was a mix of late schizonts and early rings. […] The parasitemia of each culture was quantitated every 8 h for 48 h by collecting 50 μL samples for counting by flow cytometry (as previously described). The developmental stage of the parasites was confirmed at each time point by microscopic examination of Giemsa stained thin blood films. Media and compound were replaced at the 32 h time point.

[6] = test system: P. berghei; assay: Peters' 4-day suppressive test for P. berghei infection in mice; format: in vivo, Plasmodium berghei; conditions: intraperitoneal, 20 mpk q.d., 4 days, Swiss mice
Protocol: For results shown in Figure 1 A male Swiss mice were infected intraperitoneally (IP) with 1 × 10^6 P. berghei ANKA-parasitised red blood cells withdrawn from a previously infected donor mouse. Test compounds were prepared in a vehicle consisting of 10% DMSO/90% Solutol (5% Solutol® HS-15 in 0.9% saline). […] Peripheral blood samples were taken 24 h after administration of the last dose, and parasitemia was measured by microscopic analysis of Giemsa-stained blood smears. Parasitemia values were averages for 6 mice per group and are expressed as percent parasitemia. For results shown in Figure 4A ‘donor’ female Swiss mice were infected intraperitoneally (IP) with blood stage P. berghei parasites constitutively expressing GFP (P. berghei ANKA GFPcon 259cl2 ([Franke-Fayard et al., 2004]). Three days later, groups of 4 ‘acceptor’ Swiss mice were infected intravenously (IV) with 1 × 10^7 parasitised erythrocytes from the ‘donor’ mice. Two h post infection, experimental mice (4 per cohort) were left untreated (control mice) or treated orally on 4 consecutive days with test drugs formulated in 20% DMSO/60% PG/20% water (v/v/v) or chloroquine dissolved in water. […] Peripheral blood samples were taken 12 h after the last treatment, and parasitemia measured by flow cytometry (proportion of GFP-positive cells in 100,000 recorded events using FACSCalibur, BD) and microscopic analysis of Giemsa-stained blood smears. Parasitemia values were averages for 4 mice per group and are expressed as percent parasitemia.

[7] = Pharmacokinetic attributes (no method given); conditions: in vivo
[8] = target: T2, recombinant PMX protein (rPMX) (Plasmodium falciparum, UniProt Q8IAS0)
T2 sequence (Q8IAS0 222-573): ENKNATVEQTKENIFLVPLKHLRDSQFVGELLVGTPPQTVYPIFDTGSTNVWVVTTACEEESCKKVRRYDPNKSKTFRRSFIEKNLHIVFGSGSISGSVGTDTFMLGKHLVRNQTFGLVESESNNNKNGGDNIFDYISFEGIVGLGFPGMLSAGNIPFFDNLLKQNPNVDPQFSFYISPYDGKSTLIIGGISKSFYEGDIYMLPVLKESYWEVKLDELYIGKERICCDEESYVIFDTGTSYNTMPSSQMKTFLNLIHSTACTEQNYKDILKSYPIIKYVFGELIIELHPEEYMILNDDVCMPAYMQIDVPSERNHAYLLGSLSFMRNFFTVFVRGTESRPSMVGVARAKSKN
Protocol: (§2) All wells were backfilled to 200 nL DMSO such that it remains constant across the assay plates (1% final). IC50 values were calculated by Dotmatics 5.3 and Spotfire 7.11.1 software using a nonlinear regression four-parameter fit analysis. The equation used is sigmoidal dose response (variable slope), Y = bottom + (top − bottom)/(1+10((logEC50 − X) × Hill Slope)). Compound Ki values were calculated from the IC50s using the Cheng-Prusoff equation, Ki = IC50/(1 + [S]/Km).
(§3) All compound potency assays were conducted in 20 μl total volume. For each assay, 10 μl of recombinant enzymes in respective assay buffers (Table) were dispensed into compound containing assay plates using a Multidrop Combi dispenser and allowed to incubate for 15 min. The reactions were started with a further 10 μl addition of FRET peptide substrates and reactions incubated at 37 °C for various times (Table).Samples were excited at 340 nm and fluorescence emission measured at 492 nm using an Envision fluorescence plate reader (Perkin-Elmer).

[9] = target: T2, recombinant PMX protein (rPMX); assay: biochemical
Protocol: as §2, §3

[10] = test system: protein processing by PMIX and PMX in P. falciparum; assay: Processing inhibition assays (immunoblot of merozoites and supernatants); format: cell-based, Plasmodium falciparum; conditions: E64 10 μM, WM4 40 nM, WM382 2.5 nM
Protocol: Processing inhibition assays were performed as previously described ([Boyle et al., 2010]). Synchronized late trophozoite/early schizont cultures to which protease inhibitors had already been added, were passed over LD magnetic columns (Miltenyi Biotech) to remove uninfected erythrocytes. The cysteine protease inhibitor E64 (Sigma) was used at 10 μM. […] A control dish without any protease inhibitor was also included. Parasites were eluted from columns with complete RPMI 1640 culture medium to which the appropriate inhibitor at the same concentration had been added. Eluted parasites were adjusted to 5x10^6 schizonts/mL and 150 ul added per well of a 96-well flat-bottomed culture dish. […] Parasites from each condition were spun at 10000 g/10 min so that merozoite and supernatant fractions could be separately collected. Proteins from both fractions were extracted with Reducing sample buffer and separated on 4%–12% or 3%–8% acrylamide gels (NuPAGE, Invitrogen).

[11] = test system: P. falciparum 3D7; assay: Ring stage survival assay for artesunate; format: cell-based, Plasmodium falciparum; conditions: 3D7, 700 nM artesunate 6 h, then 66 h drug-free
Protocol: The method for determining sensitivity to artesunate was as described ([Kite et al., 2016]). Parasites were synchronized twice with 5% sorbitol at 46 h intervals and again when they were a mixture of schizonts and early rings. Triplicate 1 mL cultures were set up in 24 well plates (Falcon) at 0.5% parasitemia and 2% hematocrit with either 700 nM artesunate (Sigma) or 0.1% DMSO vehicle control. Following 6 h incubation, the cells were washed and incubated in drug-free media for a further 66 h. A 50 μL sample of each culture was fixed with 0.25% glutaraldehyde and stained with 5X SYBR then parasitemia was determined by flow cytometry. Percentage survival is parasitemia relative to vehicle treated parasites.
The percentage survival of all parasite lines was high in our experiments (∼5% for 3D7) was high compared to that described previously ([Kite et al., 2016]) most likely because we used a FACS based method was used for detection and quantitation. However, we were clearly able to distinguish the resistant CAM3 R539T line from the sensitive CAM3 Rev and 3D7 parasite lines.

[12] = test system: Dd2 parasites; format: cell-based, Plasmodium falciparum; conditions: inocula 10^5 to 10^9 parasites, up to 90 days
Source text: Each experiment was monitored by weekly microscopic examination of thin blood films. Media and compound were replaced three times each week.

[13] = test system: P. berghei; assay: Dose ranging test for P. berghei infection in mice; format: in vivo, Plasmodium berghei; conditions: chloroquine 10 mpk oral q.d. 4 days
Protocol: Control mice were treated orally with chloroquine for 4 days under q.d. dosing regimen at 10 mpk/day. From day 2 to 30 post infection, parasitemia was measured daily by flow cytometry and microscopy, as described above. Survival of animals to day 30 post infection, with no detectable parasites in the peripheral blood, were considered to be cured (i.e., 100% efficacy).

[14] = test system: P. falciparum; assay: P. falciparum humanized NOD-scid IL2R_null mouse model; conditions: chloroquine 50 mpk oral q.d. 4 days from day 3
Protocol: Compounds were tested in the murine P. falciparum SCID model ([Angulo-Barturen et al., 2008]). […] The mice were intravenously infected with 2 × 10^7 P. falciparum Pf3D7-infected erythrocytes (day 0) ([Angulo-Barturen et al., 2008]). On day 3 after infection, mice were randomly allocated to treatments that were administered once a day for 4 consecutive days (n = 3 mice) by oral gavage at 10 mL/kg. Parasitemia was measured by microscopy. Chimerism was monitored by flow cytometry using anti-murine erythrocyte TER119 monoclonal antibody (PharMingen, San Diego, CA) and SYTO-16 and then analyzed by flow cytometry in serial 2 μL blood samples taken every 24 h until assay completion.

[15] = 3D7 parasite line, asexual blood stage, read-out: EC50, inhibition of P. falciparum growth

## CC(C)CC(c1ccc(C(F)(F)F)c(C(=O)N2Cc3nccnc3C2)c1)N1C(=N)NC(CC2CC2)(c2ccccc2)CC1=O (racemic) [WM5]
[1]; Plasmodium falciparum, Figure 2C, mean ± SD, three experiments, read-out: EC50 P. falciparum
  EC50: 9.3 ± 2.7 nM
[2]; Plasmodium falciparum, 3D7, read-out: EC50, 3D7, parental line 3D7
  EC50: 13.5 ± 0.78 nM
[2]; Plasmodium falciparum, 3D7, read-out: EC50, 3D7-WM4.1, WM4-resistant line 3D7-WM4.1
  EC50: 202 ± 7.23 nM
[2]; Plasmodium falciparum, 3D7, read-out: EC50, 3D7-WM4.2, WM4-resistant line 3D7-WM4.2, Figure S1
  EC50: 144 ± 46.6 nM
[2]; Plasmodium falciparum, 3D7, read-out: EC50, 3D7-WM5.1, WM5-resistant line 3D7-WM5.1
  EC50: 172 ± 6.95 nM
[2]; Plasmodium falciparum, 3D7, read-out: EC50, 3D7-WM5.2, WM5-resistant line 3D7-WM5.2, Figure S1
  EC50: 118 ± 4.7 nM
[2]; Plasmodium falciparum, 3D7, read-out: EC50, 3D7-WM5.3, WM5-resistant line 3D7-WM5.3, Figure S1
  EC50: 51.8 ± 19.7 nM
[2]; printed as X in Figure 1E
  fold resistance of 3D7-WM5.1 compared with 3D7: 13 fold
[2]; read-out: EC50, 3D7-WM4.1, WM4-resistant line 3D7-WM4.1
  EC50: 107 ± 2.2 nM
[2]; read-out: EC50, 3D7-WM5.1, WM5-resistant line 3D7-WM5.1
  EC50: 172 nM and 117 nM
[2]; read-out: EC50, 3D7, parental line 3D7
  EC50: 11.1 ± 3.7 nM
[3]
  Ki: 3300 ± 540 nM
[4]
  EC50: 17900 ± 2000 nM
[5]
  stage of arrest of blood-stage development: arrested at late schizont stage
[6]
  in vivo activity against P. berghei infection: partial efficacy
[7]
  pharmacokinetic attributes: did not have desirable pharmacokinetic attributes
[8]
  Fold Selectivity PMX v PMV: 1,755 fold
[9]
  IC50: 3.02 nM
  Ki: 1.9 ± 0.6 nM

## CC(C)C[C@H](NC(=O)[C@H]1O[C@@H]1C(=O)O)C(=O)NCCCCN=C(N)N [E64, reference compound]
[10]
  AMA1 processing in merozoites: not affected
  ASP processing: ASP was processed
  MTRAP processing: did not inhibit its processing
  PMIX processing in parasites: not inhibited
  RAP1 processing: Two processed forms of RAP1 (p82 and p69) are detected
  RON3 processing: did not block processing
  Rh1 processed fragments, release into the supernatant: the processed fragments were released into the supernatant

## CC(NC(=O)c1cccc(C(c2ccccc2)N2C(=N)NC(C)(C(C)C)CC2=O)c1)c1ccccc1 (stereo not shown) [R-WM4]
[1]; [15]
  EC50: 4.6 nM

## CC(C)CC(c1ccc(C(F)(F)F)c(C(=O)N2Cc3nccnc3C2)c1)N1C(=N)NC(CC2CC2)(c2ccccc2)CC1=O (stereo not shown) [R-WM5]
[1]; [15]
  EC50: 10 nM

## CC(NC(=O)c1cccc(C(c2ccccc2)N2C(=N)NC(C)(C(C)C)CC2=O)c1)c1ccccc1 (stereo not shown) [S-WM4]
[1]; [15]
  EC50: 440 ± 113 nM

## CC(C)CC(c1ccc(C(F)(F)F)c(C(=O)N2Cc3nccnc3C2)c1)N1C(=N)NC(CC2CC2)(c2ccccc2)CC1=O (stereo not shown) [S-WM5]
[1]; [15]
  EC50: 688 ± 218 nM

## C[C@H]1[C@H](OC(=O)CCC(=O)O)O[C@@H]2O[C@@]3(C)CC[C@H]4[C@H](C)CC[C@@H]1[C@@]24OO3 [artesunate]
[11]
  percentage survival, ring stage survival assay: ~5%

## O=C1C(O)=C([C@H]2CC[C@H](c3ccc(Cl)cc3)CC2)C(=O)c2ccccc21 [atovaquone]
[12]
  selection of resistant parasites, time to resistance: Parasites resistant to atovaquone were selected

## CCN(CC)CCCC(C)Nc1ccnc2cc(Cl)ccc12 (stereo not shown) [chloroquine, reference compound]
[13]
  day post-infection on which parasites were detectable: 10 days
[14]
  day by which mice were cleared of parasitemia: ≤ 7 days
